The values below are quoted from earlier work in US9149493B2, “Compositions for bowel cleansing and use thereof” (ALFA WASSERMANN SPA, priority 2011, dated 2015).

For this data set the following is noted: administered alone; eliminated unchanged in urine.

Turning to “citric acid and sodium citrate [citrates]”, the “absorption of citrates in the small intestine” value was “almost entirely absorbed”.
